In patent publication US11433068B2, “Treatment of cancers having alterations within the SWI/SNF chromatin remodeling complex” (THE GENERAL HOSPITAL CORPORATION, priority 2016, dated 2022):

Legend:
[1] = tested on: ARID2-deficient cell lines; assay: Combination therapy heatmaps, cell viability, isogenically matched engineered melanoma lines (FIG. 8); type: cell-based; conditions: ARID2-deficient vs matched lines
Source text: FIG. 8 summarizes the combination therapy on isogenically matched engineered ARID-deficient melanoma cell lines. Heatmaps showing cell viability after treatment with the G9a inhibitor BIX-01294 in combination with other small molecule inhibitors (bromodomain inhibitor JQ1 and BRAF inhibitor PLX).

[2] = tested on: ARID-deficient LOX-IMVI cell line; assay: Combination therapy heatmaps, cell viability, endogenous ARID-deficient melanoma lines (FIG. 9); type: cell-based; conditions: G9a inhibitor in combination with HDAC inhibitor SAHA; LOX-IMVI compared to ARID wildtype A375
Source text: FIG. 9 summarizes the combination therapy on endogenous ARID-deficient melanoma cell lines.

[3] = tested on: G9a-amplified melanoma cell line, K029; assay: Tumor growth of subcutaneously inoculated K029 cells in SCID mice (FIG. 16); type: in vivo; conditions: K029 subcutaneous in SCID mice; 2.5 mg/kg daily ip from 8 days after inoculation
Description: G9a-amplified melanoma cell line, K029, was subcutaneously inoculated on SCID mice (5×10^6 cells/[…] PBS). Vehicle (10% DMSO/PBS) or UNC0642 (2.5 mg/kg) was daily administrated by ip injection 8 days after K029 inoculation.

[4] = tested on: melanoma cell and melanocyte; assay: Viability by cell-titer Glo assay (FIGS. 14A, 14B); type: cell-based; conditions: varying amounts; melanoma cells and melanocytes
Description: FIGS. 14A and 14B show melanoma cell and melanocyte are sensitive to G9a inhibitors. Indicated cell types were treated with varying amounts of (FIG. 14A) UNC0638 or (FIG. 14B) BIX01294 and viability was measured by cell-titer Glo assay.

[5] = tested on: melanoma cell lines (n=22); assay: LD50 of melanoma cell lines versus ARID2 mutational status (FIGS. 5A, 5B); type: cell-based; conditions: 22 melanoma cell lines; ARID2 mutant vs other lines
Source text: LD50 value of each melanoma cell line plotted for the two G9a inhibitors UNC0638 and BIX-01294. (n=22). ARID2 mutant cell lines indicated in closed circles.

[6] = tested on: UACC257 human melanoma cells with ARID2 deficiency; assay: Dose response of melanoma cells to the G9a inhibitor (FIG. 2); type: cell-based; conditions: UACC257 shARID2 knockdown vs isogenically matched control (shLuc) cells
Description: ARID2 deficiency is simulated the cells using an RNAi shARID2 to knockdown expression of ARID2. For control, the same cell lines are treated with a control RNAi shLuc instead of shARID2.

ARID2-deficient cells = assay: Selective susceptibility of ARID2-knockdown melanoma lines to G9a inhibitors (FIG. 3); type: cell-based; conditions: ARID2-knockdown of two different melanoma lines
[7] = tested on: ARID2-deficient melanomas UACC62 cells; assay: Quantification of cell number using crystal violet staining (FIGS. 4A, 4B); type: cell-based
H3K9 = assay: Histone western blot of cells treated with G9a inhibitors (FIGS. 6A, 6B); type: cell-based; conditions: UACC257 cell line
Source text: (§1) The G9a and EZH2 methyltransferases are known to target H3K9 and H3K27, respectively.

H3K27 = assay: Histone western blot of cells treated with EZH2 inhibitors (FIGS. 6A, 6B); type: cell-based; conditions: UACC257 cell line
Source text: as §1

[8] = BIX-01294 in combination with bromodomain inhibitor JQ1

SMILES	drug synergy (cell viability) [1, 8]	drug synergy (cell viability) [2]	viability (cell-titer Glo) [4]	sensitivity (LD50) versus ARID2 mutation [5]	sensitivity of ARID2-knockdown cells to G9a inhibitors (ARID2-deficient cells)	cell number (crystal violet staining) [7]	methylation marks at H3K9 (histone western blot) (H3K9)	further results
Cc1sc2c(c1C)C(c1ccc(Cl)cc1)=N[C@@H](CC(=O)OC(C)(C)C)c1nnc(C)n1-2 [JQ1]	selectively enhanced	–	–	–	–	–	–	–
O=C(CCCCCCC(=O)Nc1ccccc1)NO [SAHA, suberoylanilide hydroxamic acid]	–	selectively enhanced	–	–	–	–	–	–
COc1cc2c(NC3CCN(C(C)C)CC3)nc(N3CCC(F)(F)CC3)nc2cc1OCCCN1CCCC1 [UNC0642]	–	–	–	–	–	–	–	tumor growth [3]: effectively suppress tumor growth
COc1cc2c(NC3CCN(C(C)C)CC3)nc(C3CCCCC3)nc2cc1OCCCN1CCCC1 [UNC0638]	–	selectively enhanced	sensitive	ARID2 mutation predicts the sensitivity	sensitive	selective vulnerability	selective and specific decrease in the methylation marks	susceptibility to the G9a inhibitor (dose response) [6]: more susceptible
COc1cc2nc(N3CCCN(C)CC3)nc(NC3CCN(Cc4ccccc4)CC3)c2cc1OC [BIX-01294]	selectively enhanced	selectively enhanced	sensitive	ARID2 mutation predicts the sensitivity	sensitive	selective vulnerability	selective and specific decrease in the methylation marks	drug synergy (cell viability) ([1]; BIX-01294 in combination with BRAF inhibitor PLX): selectively enhanced
CC[C@H](C)n1cc(C)c2c(C(=O)NCc3c(C)cc(C)[nH]c3=O)cc(-c3ccc(N4CCNCC4)nc3)cc21 [GSK126]	–	–	–	–	–	–	–	methylation marks at H3K27 (histone western blot) (H3K27): selective and specific decrease in the methylation marks
